Where two headings read alike, the source gives them in different places.
Key:
[1] = tested on: MDA-MB-468 basal breast cancer cell line; test: Cell growth inhibition, Sulforhodamine B assay (SRB); format: cell-based; details: Homo sapiens, MDA-MB-468, 120 h; 5 days culture, SRB; read-out: Cell Line GI50 Range, MDA-MB-468
Experimental: (§1) Breast cancer cells (MCF-7, MDA-MB-468, HCC1954), colon cancer cells (SW620) and lung cancer cells (A549), together with human mammary epithelial primary cells (HMEC), were seeded (1000 to 4000 per 80 μl per well depending on the cell growth rate) into 96 well plates, 24 hours before compound overlay. Compounds were prepared as 10 mM stock solutions in 100% DMSO which were diluted with DMEM (Dulbecco's Modified Eagle's Medium) cell growth Medium (Invitrogen, Burlington, ON, Canada) containing 10% FBS (Fetal Bovine Serum) to concentrations ranging from 50 nM to 250 μM. Aliquots (20 μl) from each concentration were overlaid to 80 μl of the pre-seeded cells in the 96 well plates to make final concentrations of 10 nM to 50 μM. The cells were cultured for 5 days before the Sulforhodamine B assay (SRB) was performed to determine the compound's cell growth inhibition activity.
(§2) Sulforhodamine B (purchased from Sigma, Oakville, ON, Canada) is a water-soluble dye that binds to the basic amino acids of the cellular proteins. Thus, colorimetric measurement of the bound dye provides an estimate of the total protein mass that is related to the cell number. the cells are fixed in situ by gently aspirating off the culture media and adding 50 μl ice cold 10% Tri-chloroacetic Acid (TCA) per well and incubate at 4° C. for 30-60 min, The plates are washed with water five times and allowed to air dry for 5 min. Addition of 50 μl 0.4% (w/v) SRB solution in 1% (v/v) acetic acid to each well and incubatation for 30 min at RT completes the staining reaction. Following staining, plates are washed four times with 1% acetic acid to remove unbound dye and then allowed to air dry for 5 min. The stain is solubilized with 100 μl of 10 mM Tris pH10.5 per well. Absorbance is read at 570 nm.
(§3) The percentage (%) of relative growth inhibition was calculated by comparing to DMSO treated only cells (100%). GI50's were determined for compounds with cytotoxic activity. The GI50 was calculated using GraphPad PRISM software (GraphPad Software, Inc., San Diego, Calif., USA).

[2] = tested on: MCF-7 luminal breast cancer cell line; test: as above; format: cell-based; details: Homo sapiens, MCF7, 120 h; 5 days culture, SRB; read-out: Cell Line GI50 Range, MCF-7
Experimental: as §1, §2, §3

PLK1 = target: T1, PLK1 (Homo sapiens, UniProt P53350); test: PLK1 Inhibition Assay (Z-Lyte); format: biochemical; details: for IC50: 25 μM ATP, 8 nM PLK1, read-out: PLK1 IC50 Ranges; for inhibition at 10 µM: 10 μM compound, read-out: PLK1 relative inhibition percentage at a dose of 10 μM
T1 construct: purchased Invitrogen PV3501
Experimental: PLK1 inhibition was determined using the Z-Lyte assay kit from Invitrogen (cat #PV3802). […] The % inhibition values were determined according to the manufacturer's directions and IC50 values were obtained using a non-linear 4 point logistic curve fit (XLfit4, IDBS)

human PLK4 = target: T2, human PLK4 (Homo sapiens, UniProt O00444); test: PLK4 Inhibition Assay (indirect ELISA); format: biochemical
T2 construct: amino terminal GST fusion of residues 1-391 of human PLK4; made in house; host or cells: E. coli
T2 sequence (O00444 1-391): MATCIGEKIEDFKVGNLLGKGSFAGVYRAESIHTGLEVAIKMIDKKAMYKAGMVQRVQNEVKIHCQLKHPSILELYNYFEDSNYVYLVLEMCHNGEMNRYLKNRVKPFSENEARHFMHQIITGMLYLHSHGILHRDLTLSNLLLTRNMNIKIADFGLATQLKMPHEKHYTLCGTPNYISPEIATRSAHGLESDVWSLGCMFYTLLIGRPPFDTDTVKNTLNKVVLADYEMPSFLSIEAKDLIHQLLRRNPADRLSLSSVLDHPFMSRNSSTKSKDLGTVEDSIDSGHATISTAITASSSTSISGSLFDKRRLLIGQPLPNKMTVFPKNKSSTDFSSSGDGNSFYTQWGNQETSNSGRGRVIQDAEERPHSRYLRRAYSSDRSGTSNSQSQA
Summary of the method: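 IC50 values, from 4-point logistic fitting, reflect remaining activity measured by indirect ELISA. Enzyme was GST-PLK4 treated with lambda phosphatase and given a 15-minute pre-incubation with compound before ATP start.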

Aurora B = target: T3, Aurora B (Homo sapiens, UniProt Q96GD4); test: Aurora B Inhibition Assay (Z-Lyte); format: biochemical; details: for IC50: 128 μM ATP, 28 nM Aurora B, read-out: Aurora B IC50 Ranges
T3 construct: purchased Invitrogen PV3970
Experimental: (§4) Aurora B inhibition was determined using the Z-Lyte assay kit from Invitrogen. The assay was performed using the recommended manufacturer's instructions with 128 μM ATP and 28 nM Aurora B (Invitrogen cat #PV3970). The % inhibition values were determined according to the manufacturer's directions and IC50 values were obtained using a non-linear 4 point logistic curve fit (XLfit4, IDBS)

PLK2 = target: T4, PLK2 (Homo sapiens, UniProt Q9NYY3); test: PLK2 Inhibition Assay (Z-Lyte); format: biochemical; details: for inhibition at 10 µM: 10 μM compound, read-out: PLK2 relative inhibition percentage at a dose of 10 μM
T4 construct: purchased Invitrogen PV4204
Experimental: as §4, with “PLK2” for “Aurora B”, “Invitrogen (cat #PV3802).” for “Invitrogen.”, “60” for “128”, “133” for “28”, “#PV4204).” for “#PV3970).”

Aurora A = target: T5, Aurora A (Homo sapiens, UniProt O14965); test: Aurora A Inhibition Assay (Z-Lyte); format: biochemical; details: for inhibition at 10 µM: 10 μM compound, read-out: Aurora A relative inhibition percentage at a dose of 10 μM; for IC50: 20 μM ATP, 12 nM Aurora A, read-out: Aurora A IC50 Ranges
T5 construct: purchased Invitrogen PV3612
T5 sequence (O14965 1-403): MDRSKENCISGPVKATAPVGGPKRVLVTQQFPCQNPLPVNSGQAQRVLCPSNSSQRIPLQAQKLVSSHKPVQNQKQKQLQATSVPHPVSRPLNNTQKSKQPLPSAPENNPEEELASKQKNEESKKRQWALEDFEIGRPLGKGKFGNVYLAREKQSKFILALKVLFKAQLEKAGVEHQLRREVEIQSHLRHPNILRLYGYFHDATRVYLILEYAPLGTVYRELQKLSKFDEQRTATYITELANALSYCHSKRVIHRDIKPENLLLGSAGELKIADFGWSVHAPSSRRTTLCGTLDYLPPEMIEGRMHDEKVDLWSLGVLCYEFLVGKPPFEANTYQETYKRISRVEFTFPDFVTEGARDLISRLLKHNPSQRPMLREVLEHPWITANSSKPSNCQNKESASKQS
Experimental: as §4, with “Aurora A” for “Aurora B”, “with 20” for “with 128”, “and 12” for “and 28”, “cat #PV3612).” for “cat #PV3970).”

[3] = 15 μM ATP, 4 nM GST-PLK4, read-out: PLK4 IC50 Ranges

T4 sequence (Q9NYY3 whole entry): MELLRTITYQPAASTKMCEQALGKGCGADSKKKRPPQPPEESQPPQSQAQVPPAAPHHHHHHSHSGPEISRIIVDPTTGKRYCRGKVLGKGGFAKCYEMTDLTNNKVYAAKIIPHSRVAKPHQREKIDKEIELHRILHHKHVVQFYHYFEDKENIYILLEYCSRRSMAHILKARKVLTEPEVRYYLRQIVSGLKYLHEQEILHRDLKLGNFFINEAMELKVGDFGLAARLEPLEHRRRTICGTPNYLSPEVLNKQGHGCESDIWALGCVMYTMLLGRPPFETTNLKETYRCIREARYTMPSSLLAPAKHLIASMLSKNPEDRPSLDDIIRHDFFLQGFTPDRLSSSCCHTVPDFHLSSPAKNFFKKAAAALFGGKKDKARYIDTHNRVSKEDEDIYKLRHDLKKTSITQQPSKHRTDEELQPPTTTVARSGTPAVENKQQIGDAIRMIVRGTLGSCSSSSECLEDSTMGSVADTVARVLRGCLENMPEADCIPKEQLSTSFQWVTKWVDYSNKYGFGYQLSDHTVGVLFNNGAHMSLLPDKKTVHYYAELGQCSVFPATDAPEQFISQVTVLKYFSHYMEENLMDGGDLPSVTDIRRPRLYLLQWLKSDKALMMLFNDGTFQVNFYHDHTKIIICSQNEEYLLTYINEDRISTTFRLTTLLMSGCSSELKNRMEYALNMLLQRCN
T3 sequence (Q96GD4 whole entry): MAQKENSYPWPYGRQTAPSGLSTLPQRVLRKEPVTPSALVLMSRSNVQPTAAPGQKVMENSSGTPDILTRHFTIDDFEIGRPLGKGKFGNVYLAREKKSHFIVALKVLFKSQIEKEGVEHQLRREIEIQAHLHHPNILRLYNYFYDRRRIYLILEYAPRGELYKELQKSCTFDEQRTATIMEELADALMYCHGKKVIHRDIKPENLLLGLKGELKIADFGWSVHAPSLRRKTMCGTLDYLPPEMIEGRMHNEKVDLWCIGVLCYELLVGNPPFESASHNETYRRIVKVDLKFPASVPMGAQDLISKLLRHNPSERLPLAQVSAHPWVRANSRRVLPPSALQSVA
T1 sequence (P53350 whole entry): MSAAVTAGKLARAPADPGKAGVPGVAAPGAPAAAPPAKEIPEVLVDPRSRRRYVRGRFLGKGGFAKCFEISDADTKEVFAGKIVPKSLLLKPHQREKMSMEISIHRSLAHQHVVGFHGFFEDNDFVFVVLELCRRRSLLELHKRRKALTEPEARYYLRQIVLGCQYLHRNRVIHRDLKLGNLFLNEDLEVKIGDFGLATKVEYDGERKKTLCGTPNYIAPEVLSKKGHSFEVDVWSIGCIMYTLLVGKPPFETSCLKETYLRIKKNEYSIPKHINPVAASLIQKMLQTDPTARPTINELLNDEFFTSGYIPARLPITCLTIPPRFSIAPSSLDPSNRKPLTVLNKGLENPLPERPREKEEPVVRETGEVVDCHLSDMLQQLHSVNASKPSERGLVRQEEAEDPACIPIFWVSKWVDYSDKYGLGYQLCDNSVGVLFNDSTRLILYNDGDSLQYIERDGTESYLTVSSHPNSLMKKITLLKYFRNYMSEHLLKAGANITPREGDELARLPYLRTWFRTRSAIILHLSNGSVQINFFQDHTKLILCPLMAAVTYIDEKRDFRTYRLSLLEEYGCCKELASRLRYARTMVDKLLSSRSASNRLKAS

CNC(=O)c1ccc2c(c1)NC(=O)C2=Cc1ccc2cn[nH]c2c1 (mixture of isomers) [Example A10, (E and Z)-(3-((1H-indazol-6-yl)methylene)-N-methyl-2-oxoindoline-6-carboxamide]
GI50 [1]: 20 to 50 µM
GI50 [2]: 20 to 50 µM
IC50 (PLK1): < 5 µM
IC50 (human PLK4; [3]): < 5 µM

O=C1Nc2cc(Cl)ccc2/C1=C\c1ccc2[nH]nnc2c1 [Example A4, (E)-3-((1H-benzo[d][1,2,3]triazol-5-yl)methylene)-6-chloroindolin-2-one]
GI50 [1]: 5 to 20 µM
GI50 [2]: 5 to 20 µM
IC50 (PLK1): 5 to 50 µM
IC50 (human PLK4; [3]): 5 to 50 µM

O=C1Nc2ccccc2/C1=C\c1ccc2[nH]cnc2c1 [Example A19, (E)-3-((1H-benzo[d]imidazol-5-yl)methylene)indolin-2-one]
GI50 [1]: < 5 µM
GI50 [2]: 5 to 20 µM
IC50 (PLK1): 5 to 50 µM
IC50 (human PLK4; [3]): 5 to 50 µM

O=C1Nc2ccc(Br)cc2/C1=C\c1ccc2[nH]ncc2c1 [Example A31, (E)-3-((1H-indazol-5-yl)methylene)-5-bromoindolin-2-one]
inhibition at 10 µM (Aurora B; 10 μM compound, read-out: Aurora B relative inhibition percentage at a dose of 10 μM): > 50%
GI50 [1]: < 5 µM
GI50 [2]: < 5 µM
IC50 (PLK1): > 50 µM
IC50 (human PLK4; [3]): < 5 µM
IC50 (PLK2; 60 μM ATP, 133 nM PLK2, read-out: PLK2 IC50 Ranges): 5 to 50 µM
inhibition at 10 µM (Aurora A): < 50%

O=C1Nc2ccc(F)cc2/C1=C/c1ccc2cn[nH]c2c1 [Example A32, (Z)-3-((1H-indazol-6-yl)methylene)-5-fluoroindolin-2-one]
IC50 (Aurora B): < 5 µM
GI50 [1]: 5 to 20 µM
GI50 [2]: 5 to 20 µM
IC50 (PLK1): 5 to 50 µM
IC50 (human PLK4; [3]): < 5 µM
inhibition at 10 µM (PLK2): < 50%
inhibition at 10 µM (Aurora A): > 50%

Cc1ccc2c(c1)/C(=C\c1ccc3c(/C=C/c4ccncc4)n[nH]c3c1)C(=O)N2 [Example A85, (E)-5-methyl-3-((3-((E)-2-(pyridin-4-yl)vinyl)-1H-indazol-6-yl)methylene)indolin-2-one]
IC50 (Aurora B): < 5 µM
inhibition at 10 µM (PLK1): < 50%
IC50 (human PLK4; [3]): < 5 µM
inhibition at 10 µM (PLK2): < 50%
IC50 (Aurora A): < 5 µM

COc1ccc2c(c1)/C(=C\c1ccc3c(/C=C/c4ccncc4)n[nH]c3c1)C(=O)N2 [Example A86, (E)-5-methoxy-3-((3-((E)-2-(pyridin-4-yl)vinyl)-1H-indazol-6-yl)methylene)indolin-2-one]
IC50 (Aurora B): < 5 µM
inhibition at 10 µM (PLK1): < 50%
IC50 (human PLK4; [3]): < 5 µM
inhibition at 10 µM (PLK2): < 50%
inhibition at 10 µM (Aurora A): > 50%

O=C1Nc2ncccc2/C1=C\c1ccc2c(/C=C/c3ccncc3)n[nH]c2c1 [Example A101, (E)-3-((3-((E)-2-(pyridin-4-yl)vinyl)-1H-indazol-6-yl)methylene)-1H-pyrrolo[2,3-b]pyridin-2(3H)-one]
IC50 (Aurora B): < 5 µM
inhibition at 10 µM (PLK1): < 50%
IC50 (human PLK4; [3]): < 5 µM
inhibition at 10 µM (PLK2): < 50%
inhibition at 10 µM (Aurora A): > 50%

COc1ccc2c(c1)/C(=C\c1ccc3c(-c4ccc(N5CCOCC5)nc4)n[nH]c3c1)C(=O)N2 [Example A112, (E)-5-methoxy-3-((3-(6-morpholinopyridin-3-yl)-1H-indazol-6-yl)-methylene)indolin-2-one]
IC50 (Aurora B): < 5 µM
inhibition at 10 µM (PLK1): < 50%
IC50 (human PLK4; [3]): < 5 µM
inhibition at 10 µM (PLK2): < 50%
IC50 (Aurora A): < 5 µM

O=C1Nc2ccccc2/C1=C\c1ccc2c(/C=C/c3cccnc3)n[nH]c2c1 [Example A113, (E)-3-((3-((E)-2-(pyridin-3-yl)vinyl)-1H-indazol-6-yl)methylene)-indolin-2-one]
IC50 (Aurora B): < 5 µM
inhibition at 10 µM (PLK1): < 50%
IC50 (human PLK4; [3]): < 5 µM
inhibition at 10 µM (PLK2): < 50%
IC50 (Aurora A): < 5 µM

COc1ccc2c(c1)/C(=C\c1ccc3c(/C=C/c4cc[n+]([O-])cc4)n[nH]c3c1)C(=O)N2 [Example A117, 4-((E)-2-(6-((E)-(5-methoxy-2-oxoindolin-3-ylidene)methyl)-1H-indazol-3-yl)vinyl)pyridine 1-oxide]
IC50 (Aurora B): < 5 µM
inhibition at 10 µM (PLK1): < 50%
IC50 (human PLK4): < 5 µM
inhibition at 10 µM (PLK2): < 50%
IC50 (Aurora A): < 5 µM

COc1ccc2c(c1)/C(=C\c1ccc3c(/C=C/c4ccncc4Cl)n[nH]c3c1)C(=O)N2 [Example A119, (E)-3-((3-((E)-2-(3-chloropyridin-4-yl)vinyl)-1H-indazol-6-yl)methyl-ene)-5-methoxyindolin-2-one]
IC50 (Aurora B): < 5 µM
inhibition at 10 µM (PLK1): < 50%
IC50 (human PLK4; [3]): < 5 µM
inhibition at 10 µM (PLK2): < 50%
IC50 (Aurora A): < 5 µM

CC(=O)Nc1cccc2c1NC(=O)/C2=C/c1ccc2c(/C=C/c3ccncc3)n[nH]c2c1 [Example A120, N-((E)-2-oxo-3-((3-((E)-2-(pyridin-4-yl)vinyl)-1H-indazol-6-yl)-methylene)indolin-7-yl)acetamide]
IC50 (Aurora B): < 5 µM
inhibition at 10 µM (PLK1): < 50%
IC50 (human PLK4; [3]): < 5 µM
inhibition at 10 µM (PLK2): < 50%
IC50 (Aurora A): < 5 µM

Source: US8765748B2, “Indazolyl, benzimidazolyl, benzotriazolyl substituted indolinone derivatives as kinase inhibitors useful in the treatment of cancer” (University Health Network, priority 2007, dated 2014)
